The source of these data is ChEMBL document CHEMBL1268994, “Synthesis and molecular modelling studies of prenylated pyrazolines as MAO-B inhibitors” (Bioorg Med Chem Lett, 2010).

The target in data set [1] is T1, Amine oxidase [flavin-containing] B (Homo sapiens, UniProt P27338).
T1 sequence (P27338 whole entry): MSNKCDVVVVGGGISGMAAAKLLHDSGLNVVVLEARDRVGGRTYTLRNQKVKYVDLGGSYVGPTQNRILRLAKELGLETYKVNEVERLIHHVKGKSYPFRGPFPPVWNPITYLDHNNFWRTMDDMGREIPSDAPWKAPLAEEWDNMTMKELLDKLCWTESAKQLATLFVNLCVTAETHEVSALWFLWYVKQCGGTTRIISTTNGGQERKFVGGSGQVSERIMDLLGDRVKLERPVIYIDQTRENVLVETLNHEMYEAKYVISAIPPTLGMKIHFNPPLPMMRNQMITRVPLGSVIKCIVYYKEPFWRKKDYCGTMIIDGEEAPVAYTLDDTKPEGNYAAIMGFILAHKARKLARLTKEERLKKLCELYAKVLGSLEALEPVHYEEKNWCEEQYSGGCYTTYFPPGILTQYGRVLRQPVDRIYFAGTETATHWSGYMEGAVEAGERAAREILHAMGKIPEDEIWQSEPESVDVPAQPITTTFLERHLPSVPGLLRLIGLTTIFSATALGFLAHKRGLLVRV
The data set is described as follows: biochemical. Format: cell-based.

Data set [2] concerns the target T2, Amine oxidase [flavin-containing] A (Homo sapiens, UniProt P21397).
T2 sequence (P21397 whole entry): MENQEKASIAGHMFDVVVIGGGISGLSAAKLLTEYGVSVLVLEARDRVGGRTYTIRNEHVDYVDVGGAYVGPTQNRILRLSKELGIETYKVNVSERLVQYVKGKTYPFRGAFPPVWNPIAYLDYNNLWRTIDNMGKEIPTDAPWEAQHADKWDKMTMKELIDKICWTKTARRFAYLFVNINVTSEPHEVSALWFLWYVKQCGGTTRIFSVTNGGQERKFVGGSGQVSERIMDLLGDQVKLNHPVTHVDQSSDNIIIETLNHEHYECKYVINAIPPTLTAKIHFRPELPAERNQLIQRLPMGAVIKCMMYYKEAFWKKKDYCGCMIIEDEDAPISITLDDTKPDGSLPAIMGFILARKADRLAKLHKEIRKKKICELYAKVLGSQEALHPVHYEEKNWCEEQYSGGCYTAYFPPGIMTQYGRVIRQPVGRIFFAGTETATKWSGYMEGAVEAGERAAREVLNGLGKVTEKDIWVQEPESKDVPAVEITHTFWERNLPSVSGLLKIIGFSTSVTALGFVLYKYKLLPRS
The experiment in a line: biochemical.

Data set [3] concerns the target T1, Amine oxidase [flavin-containing] B. The data set is described as follows: Inhibition of human recombinant MAO-B expressed in baculovirus infected BT1 cells at 1 mM. The following applies: 1000 µM.
Data set [4] has as its target T2, Amine oxidase [flavin-containing] A. The data set is described as follows: Inhibition of human recombinant MAO-A expressed in baculovirus infected BT1 cells at 100 uM.

pIC50: −log10 of the molar value.

On to `CC(=O)N1N=C(c2ccc(OCC=C(C)C)cc2O)CC1c1ccc(OCc2ccccc2)cc1` (configuration not stated), for which the pIC50 is 6.76 in data set [1] and 6.50 in data set [2].
As for `O=C(NCCN1CCOCC1)c1ccc(Cl)cc1` [MOCLOBEMIDE], in data set [3], the “inhibition (INH)” value was “Not Active”.
As to `CC(C)=CCOc1ccc(C2=NN(C(N)=S)C(c3ccc(Cl)cc3)C2)c(O)c1` (configuration not stated), the pIC50 in data set [1] was 6.08. Further, the “inhibition (INH)” value in data set [4] is recorded as “Not Active”.
In the same order, the values of `CC(C)=CCOc1ccc(C2=NN(C(N)=S)C(c3ccccc3)C2)c(O)c1` (configuration not stated) are 4.28 and “Not Active”.

A word on the pIC50: it is −log10 of the IC50, conventionally taken in molar units.
